Experimental data reported in US3984390A, “Novel process for producing phleomycin group antibiotics” (Zaidan Hojin Biseibutsu Kagaku Kenkyu Kai, priority 1972, dated 1976).

How the values were obtained:
[1] = tested on: Ehrlich ascites carcinoma; experiment: Antitumor activity and toxicity in ICR-SLC mouse inoculated with Ehrlich ascites carcinoma, i.p. for ten consecutive days; format: in vivo; settings: for Chemotherapeutic index: Table 5, ten consecutive days into peritoneal cavity, evaluated 50 days after beginning; for Chemotherapeutic index (LD50/ED50): Tables 2 to 4; for Chemotherapeutic index (LD50/ED50) / LD50 (50 % lethal dose) / ED50 (50 % effective dose): i.p., for 10 days, 72000 min; for LD50 (50 % lethal dose): Behrens-Karber method; for ED50 (50 % effective dose): maximum dose level within the range of longevity ratio of 100 to 200
Description: The phleomycin was administered for ten consecutive days into peritoneal cavity of a ICR-SLC mouse, into which Ehrlich ascites carcinoma had been inoculated. Fifty days after the beginning of the experiment, measurements were made for (1) the number of dead mouse owing to toxicity, (2) the number of survived mouse, (3) mean survival period in 50 days, and (4) the ratio of mean survival period to that of reference mouse multiplied by 100. The chemotherapeutic index was calculated from the values of ED50 (50 % effective dose) and LD50 (50 % lethal dose) which were obtained as given below.
ED50 value: The maximum dose level within the range of logevity ratio of 100 to 200.
LD50 value: Calculated according to Behrens-Karber method from the data of (1) and (2).
^(2) A bleomycin was administered for ten consecutive days into
peritoneal cavity of a ICR-SLC mouse, where Ehrlich ascites carcinoma had
been inoculated, and 50 days after the beginning of experiment the […]

[2] = tested on: Mycobacterium smegmatis 607; experiment: Antimicrobial potency, cylinder agar plate method, Bleomycin A2 (copper-free base) assumed as 1000 U/mg; format: cell-based; settings: for Antimicrobial potency: Mycobacterium smegmatis 607
Description: 1. Antimicrobial potency was assayed by a cylinder agar plate method on the basis of Bleomycin A2 (copper-free base) assumed as 1000 U/mg, using Mycobacterium smegmatis 607 as test organism.
^(1) Assayed by a cylinder-agar plate method using Mycobacterium
smegmatis 607 as test organism, the potency of bleomycin A2
(copper-free base) being assumed as 1000 unit/mg.
The resulting compound has 0.65 of Rf value of the Silica gel thin layer chromatograph (CH3 OH: 10 %-CH3 COONH4 : 10 %-NH4 OH = 10 : 9 : 1) and 0.53 of Rf value of the Avicel thin layer chromatography (n-C3 H7 OH : pyridine : CH3 COOH : H2 O = 15 : 10 : 3 : 12) which are same with those of the 3-morpholinopropylaminobleomycin. The antimicrobial activity to Mycobacterium smegmatis 607 by the cylinder-agar plate method (the standard copper-free bleomycin A2 free base 1,000 U/mg) was 605 U/mg.

[3] = 0.19 mg/kg/day for 10 days i.p.
[4] = 0.39 mg/kg/day for 10 days i.p.
[5] = 0.78 mg/kg/day for 10 days i.p.
[6] = 1.56 mg/kg/day for 10 days i.p.
[7] = 3.12 mg/kg/day for 10 days i.p.
[8] = 6.25 mg/kg/day for 10 days i.p.
[9] = 12.5 mg/kg/day for 10 days i.p.
[10] = 25.0 mg/kg/day for 10 days i.p.
[11] = bleomycins of Table 5, bleomycin A2 (copper-free base) = 1000 unit/mg

## 3-Morpholinopropylaminobleomycin
[1]; [3]
  Average longevity (mean survival period in 50 days): 11.8
  Longevity ratio (mean survival period to that of reference mouse multiplied by 100): 97
  Toxicity, number dead/total number: 0/5
  Viability (after 50 days), number survived/total number: 0/5
[1]; [4]
  Average longevity (mean survival period in 50 days): 11.8
  Longevity ratio (mean survival period to that of reference mouse multiplied by 100): 97
  Toxicity, number dead/total number: 0/5
  Viability (after 50 days), number survived/total number: 0/5
[1]; [5]
  Average longevity (mean survival period in 50 days): 33.0
  Longevity ratio (mean survival period to that of reference mouse multiplied by 100): 270
  Toxicity, number dead/total number: 0/5
  Viability (after 50 days), number survived/total number: 2/5
[1]; [6]
  Average longevity (mean survival period in 50 days): 36.6
  Longevity ratio (mean survival period to that of reference mouse multiplied by 100): 300
  Toxicity, number dead/total number: 0/5
  Viability (after 50 days), number survived/total number: 3/5
[1]; [7]
  Average longevity (mean survival period in 50 days): 45.2
  Longevity ratio (mean survival period to that of reference mouse multiplied by 100): 370
  Toxicity, number dead/total number: 0/5
  Viability (after 50 days), number survived/total number: 4/5
[1]; [8]
  Average longevity (mean survival period in 50 days): 34.2
  Longevity ratio (mean survival period to that of reference mouse multiplied by 100): 280
  Toxicity, number dead/total number: 2/5
  Viability (after 50 days), number survived/total number: 3/5
[1]; [9]
  Average longevity (mean survival period in 50 days): 30.4
  Longevity ratio (mean survival period to that of reference mouse multiplied by 100): 249
  Toxicity, number dead/total number: 4/5
  Viability (after 50 days), number survived/total number: 1/5
[1]; [10]
  Average longevity (mean survival period in 50 days): 12.4
  Longevity ratio (mean survival period to that of reference mouse multiplied by 100): 102
  Toxicity, number dead/total number: 5/5
  Viability (after 50 days), number survived/total number: 0/5
[1]
  Chemotherapeutic index: 21.7
  Chemotherapeutic index (LD50/ED50): 12.1
  LD50 (50 % lethal dose): 9.4 mg/kg/day
  ED50 (50 % effective dose): 0.78 mg/kg/day
[2]; Referential Example, standard copper-free bleomycin A2 free base 1,000 U/mg
  Antimicrobial activity to Mycobacterium smegmatis 607: 605 U/mg
[2]; [11]
  Antimicrobial potency: 592 Unit/mg

## 3-Morpholinopropylaminophleomycin
[1]; [3]
  Average longevity (mean survival period in 50 days): 20.6
  Longevity ratio (mean survival period to that of reference mouse multiplied by 100): 167
  Toxicity, number dead/total number: 0/5
  Viability (after 50 days), number survived/total number: 0/5
[1]; [4]
  Average longevity (mean survival period in 50 days): 16.2
  Longevity ratio (mean survival period to that of reference mouse multiplied by 100): 133
  Toxicity, number dead/total number: 0/5
  Viability (after 50 days), number survived/total number: 0/5
[1]; [5]
  Average longevity (mean survival period in 50 days): 22.8
  Longevity ratio (mean survival period to that of reference mouse multiplied by 100): 187
  Toxicity, number dead/total number: 0/5
  Viability (after 50 days), number survived/total number: 0/5
[1]; [6]
  Average longevity (mean survival period in 50 days): 35.0
  Longevity ratio (mean survival period to that of reference mouse multiplied by 100): 287
  Toxicity, number dead/total number: 0/5
  Viability (after 50 days), number survived/total number: 2/5
[1]; [7]
  Average longevity (mean survival period in 50 days): 49.2
  Longevity ratio (mean survival period to that of reference mouse multiplied by 100): 403
  Toxicity, number dead/total number: 0/5
  Viability (after 50 days), number survived/total number: 5/5
[1]; [8]
  Average longevity (mean survival period in 50 days): 50.0
  Longevity ratio (mean survival period to that of reference mouse multiplied by 100): 410
  Toxicity, number dead/total number: 0/5
  Viability (after 50 days), number survived/total number: 5/5
[1]; [9]
  Average longevity (mean survival period in 50 days): 39.2
  Longevity ratio (mean survival period to that of reference mouse multiplied by 100): 321
  Toxicity, number dead/total number: 2/5
  Viability (after 50 days), number survived/total number: 3/5
[1]; [10]
  Average longevity (mean survival period in 50 days): 26.2
  Longevity ratio (mean survival period to that of reference mouse multiplied by 100): 215
  Toxicity, number dead/total number: 5/5
  Viability (after 50 days), number survived/total number: 0/5
[1]
  Chemotherapeutic index (LD50/ED50): 19.2
  LD50 (50 % lethal dose): 15.0 mg/kg/day
  ED50 (50 % effective dose): 0.78 mg/kg/day
[1]; as shown in Tables 2 and 3
  Prolongation effect on the survival period of ICR-SLC mouse inoculated with Ehrlich ascites carcinoma: distinct prolongation effect
[1]; same terminal amine Y
  Chemotherapeutic index compared with 3-morpholinopropylaminobleomycin: practically same order
[2]; phleomycins of Table 1, Bleomycin A2 (copper-free base) = 1000 U/mg
  Antimicrobial potency: 474 unit/mg

## 3-N-(1-Phenylethyl)aminopropylaminobleomycin
[1]
  Chemotherapeutic index: 59.2
[2]; [11]
  Antimicrobial potency: 5320 Unit/mg

## 3-(3-N,N-Dimethylaminopropylamino)propylaminobleomycin
[1]
  Chemotherapeutic index: 54
[2]; [11]
  Antimicrobial potency: 1670 Unit/mg

## 3-Pyrrolidinopropylaminobleomycin
[1]
  Chemotherapeutic index: 19.2
[2]; [11]
  Antimicrobial potency: 1066 Unit/mg

## 3-N,N-Diethylaminopropylaminobleomycin
[1]
  Chemotherapeutic index: 34.5
[2]; [11]
  Antimicrobial potency: 1036 Unit/mg

## Cc1c(N)nc(C(CC(N)=O)NCC(N)C(N)=O)nc1C(=O)NC(C(=O)NC(C)C(O)C(C)C(=O)NC(C(=O)NCCc1nc(-c2nc(C(=O)NCCC[S+](C)C)cs2)cs1)C(C)O)C(OC1OC(CO)C(O)C(O)C1OC1OC(CO)C(O)C(OC(N)=O)C1O)c1cnc[nH]1 (stereo not shown) [3-S,S-Dimethylmercaptopropylaminobleomycin]
[1]
  Chemotherapeutic index: 12.0
[2]; [11]
  Antimicrobial potency: 920 Unit/mg

## 3-Piperidinopropylaminobleomycin
[1]
  Chemotherapeutic index: 14.4
[2]; [11]
  Antimicrobial potency: 1257 Unit/mg
